Test results reported in patent publication US7897602B2, “Indolinone compounds as kinase inhibitors” (Development Center for Biotechnology, priority 2009, dated 2011).

Columns and labels:
Type in all cases: biochemical
c-Met kinase = target: T1, c-Met kinase (Homo sapiens, UniProt P08581); experiment: c-Met kinase assay (33P incorporation into Poly(Glu-Tyr)); settings: 500 nM test compound
T1 construct: recombinant N-terminal 6×His-tagged c-Met kinase domain construct expressed from baculovirus; 6xHis (N); made in house
Protocol: Inhibition of c-Met kinase activity by compounds disclosed herein was quantified by measuring the amount of [^33P] incorporated into the substrate in the presence of a test compound. Briefly, a reaction mixture of 25 μL final volume containing 5 ng of c-Met kinase (obtained by purifying recombinant N-terminal 6×His-tagged c-Met kinase domain construct expressed from baculovirus), 1 μg of the substrate (Poly (Glu-Tyr, 4:1, Sigma)), kinase reaction buffer (20 mM MOPS pH 7.0, 1 mM EDTA, 5% glycerol, 0.01% Brij-35, 0.1% β-mercaptoethanol, 1 mg/mL BSA, 100 μM ATP, 0.1 μCi per well [^33P]-γ-ATP (2,500-3,000 Ci/mmol)), and a test compound (500 nM, diluted with 4% DMSO) or DMSO (as the control) was incubated at 30° C. for 30 minutes. The reaction was stopped by adding 5 μL of 3% phosphoric acid solution. The resultant reaction solution was then harvested onto a filter plate (UniFilter-96 GF/B, PerkinElmer), washed 20 times for 5 min with d.d. H2O, and followed by the addition of 30 μL of MicroScint™-20 Cocktail (PerkinElmer). The plate was then sealed and counted using a TopCount scintillation detector (PerkinElmer). The percentage of inhibition rate of the test compound was calculated by dividing the retained radioactivity of the test sample with the retained radioactivity of the control sample and shown in Table 3.

Aurora B kinase = target: T2, Aurora B kinase (Homo sapiens, UniProt Q96GD4); experiment: Aurora B kinase assay ([γ-33P]ATP, CHOCKtide substrate); settings: for inhibition at 1 µM: 1.0 μM test compound
T2 construct: purchased Cell signaling
Protocol: (§1) Inhibition of Aurora Kinase by the compounds disclosed herein was determined by incubating Aurora kinase, substrate, and a test compound together for a period of time followed by quantifying the resultant phosphorylated product. Specifically, in a well of a 96-well round bottom plate, 25 μL of a reaction mixture containing (1) a test compound disclosed herein (diluted from 9 μM to the desired final concentration), [γ-33P]ATP/ATP mix (10 μM), CHOCKtide (1 μg, Genesis Biotech Inc.), and Aurora-A (1 ng, purchased from Upstate); or (2) a test compound disclosed herein (diluted from 9 μM to the desired final concentration), [γ-33P]ATP/ATP mix (40 μM), CHOCKtide (1 μg, Genesis Biotech Inc.), and Aurora-B (2.5 ng, purchased from Cell signaling); was prepared and incubated at 33° C. for 30 minutes. The reaction was then stopped by adding 5 μL of 3% phosphoric acid. The resultant solution (30 μL) was later harvested by a UniFilter Plate GF/B (PerkinElmer) followed by adding 30 μL of the scintillation cocktail (MicroScint 20, PerkinElmer) to the well. The radioactivity retained on the filter membrane was measured by a luminescence counter (PerkinElmer). IC50 value is defined as the concentration of the test compound which achieves a half-maximal inhibition of the kinase activity.

Aurora A kinase = target: T3, Aurora A kinase (Homo sapiens, UniProt O14965); experiment: Aurora A kinase assay ([γ-33P]ATP, CHOCKtide substrate); settings: for inhibition at 1 µM: 1.0 μM test compound
T3 construct: purchased Upstate
T3 sequence (O14965 1-403): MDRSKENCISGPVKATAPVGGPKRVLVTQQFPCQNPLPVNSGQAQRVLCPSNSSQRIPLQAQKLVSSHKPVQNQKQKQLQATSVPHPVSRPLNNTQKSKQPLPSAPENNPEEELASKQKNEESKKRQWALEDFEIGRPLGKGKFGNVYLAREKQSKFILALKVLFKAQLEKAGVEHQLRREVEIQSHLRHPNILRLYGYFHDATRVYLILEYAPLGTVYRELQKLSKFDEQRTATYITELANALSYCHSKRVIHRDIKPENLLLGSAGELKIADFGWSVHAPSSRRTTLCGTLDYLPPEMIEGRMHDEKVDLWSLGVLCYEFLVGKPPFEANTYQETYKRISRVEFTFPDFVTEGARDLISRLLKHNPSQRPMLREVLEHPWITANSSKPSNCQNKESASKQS
Protocol: as §1

T2 sequence (Q96GD4 whole entry): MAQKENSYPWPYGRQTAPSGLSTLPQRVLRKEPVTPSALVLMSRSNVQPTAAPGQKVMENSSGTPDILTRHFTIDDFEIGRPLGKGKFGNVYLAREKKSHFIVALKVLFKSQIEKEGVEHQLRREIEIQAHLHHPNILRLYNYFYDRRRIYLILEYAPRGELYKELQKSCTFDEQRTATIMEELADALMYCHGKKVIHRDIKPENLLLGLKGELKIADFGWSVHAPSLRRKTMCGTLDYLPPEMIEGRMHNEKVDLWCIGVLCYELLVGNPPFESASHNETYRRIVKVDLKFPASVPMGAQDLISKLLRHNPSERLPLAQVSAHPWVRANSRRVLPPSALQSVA
T1 sequence (P08581 1078-1345 limits assumed): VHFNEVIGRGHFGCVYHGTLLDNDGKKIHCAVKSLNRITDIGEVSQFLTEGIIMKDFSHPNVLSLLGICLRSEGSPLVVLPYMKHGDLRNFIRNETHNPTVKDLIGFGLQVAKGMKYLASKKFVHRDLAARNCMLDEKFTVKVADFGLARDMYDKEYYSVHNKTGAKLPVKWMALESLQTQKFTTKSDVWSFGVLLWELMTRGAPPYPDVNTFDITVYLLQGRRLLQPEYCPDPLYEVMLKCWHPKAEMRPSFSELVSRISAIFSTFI

For `CNC(=O)CCc1c(/C=C2\C(=O)Nc3ccc(S(=O)(=O)Cc4c(Cl)cccc4Cl)cc32)[nH]c2c1C(=O)CCC2` [DCB-70157, (Z)-3-(2-((5-(2,6-dichlorobenzylsulfonyl)-2-oxoindolin-3-ylidene)methyl)-4-oxo-4,5,6,7-tetrahydro-1H-indol-3-yl)-N-methylpropanamide], the inhibition at 0.5 µM (c-Met kinase) was 85.6%, the inhibition at 1 µM (Aurora B kinase) was 6.9% and the inhibition at 1 µM (Aurora A kinase) was 13%.
Work on `COc1cccc(S(=O)(=O)Nc2ccc3c(c2)/C(=C/c2[nH]c4c(c2CCC(=O)O)C(=O)CCC4)C(=O)N3)c1` [DCB-70196, (Z)-3-(2-((5-(3-methoxyphenylsulfonamido)-2-oxoindolin-3-ylidene)methyl)-4-oxo-4,5,6,7-tetrahydro-1H-indol-3-yl)propanoic acid] yielded an inhibition at 0.5 µM (c-Met kinase) of 13.8%, an IC50 (Aurora B kinase) of 673 nM and an inhibition at 1 µM (Aurora B kinase) of 55.8%. For the same compound, the IC50 (Aurora A kinase) was 61.4 nM and the inhibition at 1 µM (Aurora A kinase) was 91.8%.
`CCOC(=O)CCc1c(/C=C2\C(=O)Nc3ccc(NS(=O)(=O)c4ccccc4)cc32)[nH]c2c1C(=O)CC(C)(C)C2` [DCB-70168, (Z)-ethyl 3-(6,6-dimethyl-4-oxo-2-((2-oxo-5-(phenylsulfonamido)indolin-3-ylidene)methyl)-4,5,6,7-tetrahydro-1H-indol-3-yl)propanoate] showed an inhibition at 0.5 µM (c-Met kinase) of 12.7%, an inhibition at 1 µM (Aurora B kinase) of 30.6% and an inhibition at 1 µM (Aurora A kinase) of 53.4%.
In the case of `CC(=O)c1c(C)[nH]c(/C=C2\C(=O)Nc3ccc(S(=O)(=O)N4CCc5ccccc54)cc32)c1CCC(=O)O` [DCB-70188, (Z)-3-(4-acetyl-2-((5-(indolin-1-ylsulfonyl)-2-oxoindolin-3-ylidene)methyl)-5-methyl-1H-pyrrol-3-yl)propanoic acid], the inhibition at 0.5 µM (c-Met kinase) is reported as 51.1%, the IC50 (Aurora B kinase) is reported as 759 nM and the inhibition at 1 µM (Aurora B kinase) is reported as 53.2%. It also gave an IC50 (Aurora A kinase) of 31.7 nM and an inhibition at 1 µM (Aurora A kinase) of 95.5%.
Compound `CCN(CC)CCNC(=O)CCc1c(/C=C2\C(=O)Nc3ccc(S(=O)(=O)Cc4c(Cl)cccc4Cl)cc32)[nH]c(C)c1C(C)=O` [DCB-70212, (Z)-3-(4-acetyl-2-((5-(2,6-dichlorobenzylsulfonyl)-2-oxoindolin-3-ylidene)methyl)-5-methyl-1H-pyrrol-3-yl)-N-(2-(diethylamino)ethyl)propanamide] has an inhibition at 0.5 µM (c-Met kinase) of 95.2%, an inhibition at 1 µM (Aurora B kinase) of 6.3% and an inhibition at 1 µM (Aurora A kinase) of 3.5%.
In the case of `CCOC(=O)CCc1c(/C=C2\C(=O)Nc3ccc(NC(=O)NC45CC6CC(CC(C6)C4)C5)cc32)[nH]c2c1C(=O)CCC2` [DCB-70174, Ethyl 3-(2-((Z)-(5-(3-(1-adamantanyl)ureido)-2-oxoindolin-3-ylidene)methyl)-4-oxo-4,5,6,7-tetrahydro-1H-indol-3-yl)propanoate], the inhibition at 0.5 µM (c-Met kinase) is reported as 4%, the inhibition at 1 µM (Aurora B kinase) is reported as -11.4% and the inhibition at 1 µM (Aurora A kinase) is reported as 2.4%.
`CCCCCCC#Cc1ccc2c(c1)/C(=C/c1[nH]c3c(c1CCC(=O)O)C(=O)CCC3)C(=O)N2` [DCB-70173, (Z)-3-(2-((5-(oct-1-ynyl)-2-oxoindolin-3-ylidene)methyl)-4-oxo-4,5,6,7-tetrahydro-1H-indol-3-yl)propanoic acid] showed an inhibition at 0.5 µM (c-Met kinase) of 13.7%, an inhibition at 1 µM (Aurora B kinase) of -9.8% and an inhibition at 1 µM (Aurora A kinase) of 13.6%.
Work on `CC(=O)c1c(C)[nH]c(/C=C2\C(=O)Nc3ccc(F)cc32)c1CCC(=O)O` [DCB-70187, (Z)-3-(4-acetyl-2-((5-fluoro-2-oxoindolin-3-ylidene)methyl)-5-methyl-1H-pyrrol-3-yl)propanoic acid] yielded an inhibition at 0.5 µM (c-Met kinase) of 8.8%, an inhibition at 1 µM (Aurora B kinase) of 17.5% and an inhibition at 1 µM (Aurora A kinase) of 62.8%.
Compound `CCOC(=O)CCc1c(/C=C2\C(=O)Nc3ccc(NS(=O)(=O)Cc4ccccc4)cc32)[nH]c2c1C(=O)CCC2` [DCB-70197, (Z)-ethyl 3-(4-oxo-2-((2-oxo-5-(phenylmethylsulfonamido)indolin-3-ylidene)methyl)-4,5,6,7-tetrahydro-1H-indol-3-yl)propanoate] has an inhibition at 0.5 µM (c-Met kinase) of 21.1%, an inhibition at 1 µM (Aurora B kinase) of 39.9% and an inhibition at 1 µM (Aurora A kinase) of 48.7%.
`CCOC(=O)CCc1c(/C=C2\C(=O)Nc3ccc(NC(=O)Nc4ccc(Cl)cc4Cl)cc32)[nH]c2c1C(=O)CCC2` [DCB-70184, (Z)-ethyl 3-(2-((5-(3-(2,4-dichlorophenyl)ureido)-2-oxoindolin-3-ylidene)methyl)-4-oxo-4,5,6,7-tetrahydro-1H-indol-3-yl)propanoate] was tested, and the inhibition at 0.5 µM (c-Met kinase) was 8.7%, the inhibition at 1 µM (Aurora B kinase) was 6.8% and the inhibition at 1 µM (Aurora A kinase) was 6.6%.
With `CCOC(=O)CCc1c(/C=C2\C(=O)Nc3ccc(S(=O)(=O)Cc4c(Cl)cccc4Cl)cc32)[nH]c2c1C(=O)CCC2` [DCB-70209, (Z)-ethyl 3-(2-((5-(2,6-dichlorobenzylsulfonyl)-2-oxoindolin-3-ylidene)methyl)-4-oxo-4,5,6,7-tetrahydro-1H-indol-3-yl)propanoate] the inhibition at 0.5 µM (c-Met kinase) was 92.1%, the inhibition at 1 µM (Aurora B kinase) was 16.3% and the inhibition at 1 µM (Aurora A kinase) was 22.7%.
Work on `CCOC(=O)CCc1c(/C=C2\C(=O)Nc3ccc(NS(=O)(=O)c4ccccc4)cc32)[nH]c(C)c1C(C)=O` [DCB-70201, (Z)-ethyl 3-(4-acetyl-5-methyl-2-((2-oxo-5-(phenylsulfonamido)indolin-3-ylidene)methyl)-1H-pyrrol-3-yl)propanoate] yielded an inhibition at 0.5 µM (c-Met kinase) of 18.8%, an inhibition at 1 µM (Aurora B kinase) of 36.6% and an inhibition at 1 µM (Aurora A kinase) of 48.2%.
Work on `O=C(O)CCc1c(/C=C2\C(=O)Nc3ccc(NS(=O)(=O)c4ccc5ccccc5c4)cc32)[nH]c2c1C(=O)CCC2` [DCB-70192, (Z)-3-(2-((5-(naphthalene-2-sulfonamido)-2-oxoindolin-3-ylidene)methyl)-4-oxo-4,5,6,7-tetrahydro-1H-indol-3-yl)propanoic acid] yielded an inhibition at 0.5 µM (c-Met kinase) of 9.9%, an inhibition at 1 µM (Aurora B kinase) of 21% and an inhibition at 1 µM (Aurora A kinase) of 40.6%.
`CCOC(=O)CCc1c(/C=C2\C(=O)Nc3ccc(NCc4ccc(F)cc4)cc32)[nH]c2c1C(=O)CCC2` [DCB-70176, (Z)-ethyl 3-(2-((5-(4-fluorobenzylamino)-2-oxoindolin-3-ylidene)methyl)-4-oxo-4,5,6,7-tetrahydro-1H-indol-3-yl)propanoate] showed an inhibition at 0.5 µM (c-Met kinase) of 10.1%, an inhibition at 1 µM (Aurora B kinase) of 15.2% and an inhibition at 1 µM (Aurora A kinase) of 52.3%.
`CCOC(=O)CCc1c(/C=C2\C(=O)Nc3ccc(NS(=O)(=O)c4cccc(OC)c4)cc32)[nH]c2c1C(=O)CCC2` [DCB-70195, (Z)-ethyl 3-(2-((5-(3-methoxyphenylsulfonamido)-2-oxoindolin-3-ylidene)methyl)-4-oxo-4,5,6,7-tetrahydro-1H-indol-3-yl)propanoate] was tested, and the inhibition at 0.5 µM (c-Met kinase) was 15.3%, the inhibition at 1 µM (Aurora B kinase) was 47.5% and the inhibition at 1 µM (Aurora A kinase) was 73.1%.
For `CC(=O)c1c(C)[nH]c(/C=C2\C(=O)Nc3ccc(S(=O)(=O)N4CCc5ccccc54)cc32)c1CCC(=O)N1CCN(C)CC1` [DCB-70206, (Z)-3-((4-acetyl-5-methyl-3-(3-(4-methylpiperazin-1-yl)-3-oxopropyl)-1H-pyrrol-2-yl)methylene)-5-(indolin-1-ylsulfonyl)indolin-2-one], the inhibition at 0.5 µM (c-Met kinase) was 77.4%, the inhibition at 1 µM (Aurora B kinase) was 21.1% and the inhibition at 1 µM (Aurora A kinase) was 37.4%.
`CC1(C)CC(=O)c2c([nH]c(/C=C3\C(=O)Nc4ccc(S(=O)(=O)N5CCc6ccccc65)cc43)c2CCC(=O)O)C1` [DCB-70161, (Z)-3-(2-((5-(indolin-1-ylsulfonyl)-2-oxoindolin-3-ylidene)methyl)-6,6-dimethyl-4-oxo-4,5,6,7-tetrahydro-1H-indol-3-yl)propanoic acid] gave an inhibition at 0.5 µM (c-Met kinase) of 59.7%, an inhibition at 1 µM (Aurora B kinase) of 14.6% and an inhibition at 1 µM (Aurora A kinase) of 78.8%.
Compound `CCN(CC)CCNC(=O)CCc1c(/C=C2\C(=O)Nc3ccc(S(=O)(=O)Cc4c(Cl)cccc4Cl)cc32)[nH]c2c1C(=O)CCC2` [DCB-70223, (Z)-3-(2-((5-(2,6-dichlorobenzylsulfonyl)-2-oxoindolin-3-ylidene)methyl)-4-oxo-4,5,6,7-tetrahydro-1H-indol-3-yl)-N-(2-(diethylamino)ethyl)propanamide] has an inhibition at 1 µM (Aurora B kinase) of 43.7% and an inhibition at 1 µM (Aurora A kinase) of 68.5%.
